Read-outs that look alike come from different tables or passages of the source.
Tested on: RS4; 11 with G101V mutation
Experiment: In vitro anti-proliferation assay (ATPlite luminescence) in BCL-2-dependent ALL cell line RS4;11 with G101V mutation
Type: cell-based
Conditions: read-out: RS411-G101V IC50
Procedure: Cell antiproliferation was assayed by PerkinElmer ATPlite™ Luminescence Assay System. Briefly, the various test cancer cell lines were plated at a density of about 1×10^4 cells per well in Costar 96-well plates, and were incubated with different concentrations of compounds for about 72 hours in medium supplemented with 10% FBS. One lyophilized substrate solution vial was then reconstituted by adding 5 mL of substrate buffer solution, and was agitated gently until the solution was homogeneous. About 50 μL of mammalian cell lysis solution was added to 100 μL of cell suspension per well of a microplate, and the plate was shaken for about five minutes in an orbital shaker at ˜700 rpm. This procedure was used to lyse the cells and to stabilize the ATP. Next, 50 μL substrate solution was added to the wells and microplate was shaken for five minutes in an orbital shaker at ˜700 rpm. Finally, the luminescence was measured by a PerkinElmer TopCount® Microplate Scintillation Counter. Such assays, carried out with a range of doses of test compounds, allowed the determination of the cellular anti-antiproliferative IC50 of the compounds of the present invention.
The following table lists the IC50 values of another study for certain compounds of the invention.

[1] = cellular anti-proliferative IC50, about 72 hours, medium with 10% FBS, ATPlite

SMILES	IC50 [1] [nM]	IC50 (Homo sapiens, RS4-11, 72 h) [nM]
COc1cc(CN2CCN(C3CC4(CCN(c5ccc(C(=O)NS(=O)(=O)c6cc7c(c([N+](=O)[O-])c6)N[C@H](C6CCOCC6)CO7)c(N6c7cc8cc[nH]c8nc7O[C@H]7COCC[C@@H]76)c5)CC4)C3)[C@H](c3ccccc3C(C)C)C2)cnc1OC [Example 173, 4-{2-[(2R)-4-[(5,6-dimethoxypyridin-3-yl)methyl]-2-(2-isopropylphenyl)piperazin-1-yl]-7-azaspiro[3.5]nonan-7-yl}-2-[(3R,8S)-2,5-dioxa-9,15,17-triazatetracyclo[8.7.0.0^{3,8}.0^{12,16}]heptadeca-1(10),11,13,16-tetraen-9-yl]-N-[(3R)-5-nitro-3-(oxan-4-yl)-3,4-dihydro-2H-1,4-benzoxazin-7-ylsulfonyl]benzamide]	1	
CC(C)Oc1ccccc1[C@H]1CN(Cc2cnc(N3CCOCC3)c(OC(C)C)c2)CCN1C1CC2(CCN(c3ccc(C(=O)NS(=O)(=O)c4ccc(NCC5CCC(C)(O)CC5)c([N+](=O)[O-])c4)c(N4c5cc6cc[nH]c6nc5O[C@H]5COCC[C@@H]54)c3)CC2)C1 (stereo partly drawn) [Example 137, 2-[(3R,8S)-2,5-dioxa-9,15,17-triazatetracyclo[8.7.0.0^{3,8}.0^{12,16}]heptadeca-1(10),11,13,16-tetraen-9-yl]-4-{2-[(2S)-4-{[5-isopropoxy-6-(morpholin-4-yl)pyridin-3-yl]methyl}-2-(2-isopropoxyphenyl)piperazin-1-yl]-7-azaspiro[3.5]nonan-7-yl}-N-[3-nitro-4-({[(1r,4r)-4-hydroxy-4-methylcyclohexyl]methyl}amino)benzenesulfonyl]benzamide]	41.5	
COc1cc(CN2CCN(C3CC4(CCN(c5ccc(C(=O)NS(=O)(=O)c6ccc(NCC7CCC(C)(O)CC7)c([N+](=O)[O-])c6)c(N6c7cc8cc[nH]c8nc7O[C@H]7COCC[C@@H]76)c5)CC4)C3)[C@H](c3ccccc3C)C2)cnc1N1CCOC[C@H]1C (stereo partly drawn) [Example 139, 2-[(3R,8S)-2,5-dioxa-9,15,17-triazatetracyclo[8.7.0.0^{3,8}.0^{12,16}]heptadeca-1(10),11,13,16-tetraen-9-yl]-4-{2-[(2R)-4-({5-methoxy-6-[(3R)-3-methylmorpholin-4-yl]pyridin-3-yl}methyl)-2-(2-methylphenyl)piperazin-1-yl]-7-azaspiro[3.5]nonan-7-yl}-N-[3-nitro-4-({[(1r,4r)-4-hydroxy-4-methylcyclohexyl]methyl}amino)benzenesulfonyl]benzamide]	3.5	
CC(C)Oc1ccccc1[C@@H]1CN(Cc2ccc(C(C)(C)C)nc2)CCN1C1CC2(CCN(c3ccc(C(=O)NS(=O)(=O)c4cc5c(c([N+](=O)[O-])c4)N[C@H](C4CCOCC4)CO5)c(N4c5cc6cc[nH]c6nc5O[C@H]5COCC[C@@H]54)c3)CC2)C1 [Example 256, 4-(2-((R)-4-((6-(tert-butyl)pyridin-3-yl)methyl)-2-(2-isopropoxyphenyl)piperazin-1-yl)-7-azaspiro[3.5]nonan-7-yl)-N-(((R)-5-nitro-3-(tetrahydro-2H-pyran-4-yl)-3,4-dihydro-2H-benzo[b][1,4]oxazin-7-yl)sulfonyl)-2-((5aS,9aR)-6,7,9,9a-tetrahydro-1H-pyrano[3,4-b]pyrrolo[3′,2′:5,6]pyrido[3,2-e][1,4]oxazin-5(5aH)-yl)benzamide]		11.8
Cc1ccccc1[C@@H]1CN(Cc2cnc(N3CCOC[C@@H]3C)c(C(F)(F)F)c2)CCN1C1CC2(CCN(c3ccc(C(=O)NS(=O)(=O)c4cc5c(c([N+](=O)[O-])c4)N[C@H](C4CCOCC4)CO5)c(N4c5cc6cc[nH]c6nc5O[C@H]5COCC[C@@H]54)c3)CC2)C1 [Example 206, 2-[(3R,8S)-2,5-dioxa-9,15,17-triazatetracyclo[8.7.0.0^{3,8}.0^{12,16}]heptadeca-1(10),11,13,16-tetraen-9-yl]-4-{2-[(2R)-4-({6-[(3S)-3-methylmorpholin-4-yl]-5-(trifluoromethyl)pyridin-3-yl}methyl)-2-(2-methylphenyl)piperazin-1-yl]-7-azaspiro[3.5]nonan-7-yl}-N-[(3R)-5-nitro-3-(oxan-4-yl)-3,4-dihydro-2H-1,4-benzoxazin-7-ylsulfonyl]benzamide]	229	
COc1cc(CN2CCN(C3CC4(CCN(c5ccc(C(=O)NS(=O)(=O)c6ccc(NC[C@H]7CC[C@](C)(O)CC7)c([N+](=O)[O-])c6)c(N6c7cc8cc[nH]c8nc7O[C@H]7COCC[C@@H]76)c5)CC4)C3)[C@H](c3ccccc3C)C2)cnc1N1CCOC[C@@H]1C [Example 138, N-((4-((((1r,4r)-4-hydroxy-4-methylcyclohexyl)methyl)amino)-3-nitrophenyl)sulfonyl)-4-(2-((R)-4-((5-methoxy-6-((S)-3-methylmorpholino)pyridin-3-yl)methyl)-2-(o-tolyl)piperazin-1-yl)-7-azaspiro[3.5]nonan-7-yl)-2-((5aS,9aR)-6,7,9,9a-tetrahydro-1H-pyrano[3,4-b]pyrrolo[3′,2′:5,6]pyrido[3,2-e][1,4]oxazin-5(5aH)-yl)benzamide]	1.7	
CC(C)Oc1ccccc1[C@H]1CN(C2CCC(C)(O)CC2)CCN1C1CC2(CCN(c3ccc(C(=O)NS(=O)(=O)c4ccc(NCC5CCC(C)(O)CC5)c([N+](=O)[O-])c4)c(N4c5cc6cc[nH]c6nc5O[C@H]5COCC[C@@H]54)c3)CC2)C1 (stereo partly drawn) [Example 108, 2-[(3R,8S)-2,5-dioxa-9,15,17-triazatetracyclo[8.7.0.0^{3,8}.0^{12,16}]heptadeca-1(10),11,13,16-tetraen-9-yl]-4-{2-[(2S)-2-(2-isopropoxyphenyl)-4-[(1r,4r)-4-hydroxy-4-methylcyclohexyl]piperazin-1-yl]-7-azaspiro[3.5]nonan-7-yl}-N-[3-nitro-4-({[(1r,4r)-4-hydroxy-4-methylcyclohexyl]methyl}amino)benzenesulfonyl]benzamide]	7.2	
CC(C)Oc1ccccc1[C@@H]1CN(CC2CCOCC2)CCN1C1CC2(CCN(c3ccc(C(=O)NS(=O)(=O)c4cc5c(c([N+](=O)[O-])c4)N[C@H](C4CCOCC4)CO5)c(N4c5cc6cc[nH]c6nc5O[C@H]5COCC[C@@H]54)c3)CC2)C1 [Example 176, 4-(2-((R)-2-(2-isopropoxyphenyl)-4-((tetrahydro-2H-pyran-4-yl)methyl)piperazin-1-yl)-7-azaspiro[3.5]nonan-7-yl)-N-(((R)-5-nitro-3-(tetrahydro-2H-pyran-4-yl)-3,4-dihydro-2H-benzo[b][1,4]oxazin-7-yl)sulfonyl)-2-((5aS,9aR)-6,7,9,9a-tetrahydro-1H-pyrano[3,4-b]pyrrolo[3′,2′:5,6]pyrido[3,2-e][1,4]oxazin-5(5aH)-yl)benzamide]		22.2
CC(C)Oc1ccccc1[C@@H]1CN(c2cccnc2)CCN1C1CC2(CCN(c3ccc(C(=O)NS(=O)(=O)c4cc5c(c([N+](=O)[O-])c4)N[C@H](C4CCOCC4)CO5)c(N4c5cc6cc[nH]c6nc5O[C@H]5COCC[C@@H]54)c3)CC2)C1 [Example 224, 2-[(3R,8S)-2,5-dioxa-9,15,17-triazatetracyclo[8.7.0.0^{3,8}.0^{12,16}]heptadeca-1(10),11,13,16-tetraen-9-yl]-4-{2-[(2R)-2-(2-isopropoxyphenyl)-4-(pyridin-3-yl)piperazin-1-yl]-7-azaspiro[3.5]nonan-7-yl}-N-[(3R)-5-nitro-3-(oxan-4-yl)-3,4-dihydro-2H-1,4-benzoxazin-7-ylsulfonyl]benzamide]	136	
Cc1ccccc1[C@@H]1CN(Cc2ccc(N3CCOC[C@H]3C)c(F)c2)CCN1C1CC2(CCN(c3ccc(C(=O)NS(=O)(=O)c4ccc(NC[C@H]5CC[C@](C)(O)CC5)c([N+](=O)[O-])c4)c(N4c5cc6cc[nH]c6nc5O[C@H]5COCC[C@@H]54)c3)CC2)C1 [Example 155, 2-[(3R,8S)-2,5-dioxa-9,15,17-triazatetracyclo[8.7.0.0^{3,8}.0^{12,16}]heptadeca-1(10),11,13,16-tetraen-9-yl]-4-{2-[(2R)-4-({3-fluoro-4-[(3R)-3-methylmorpholin-4-yl]phenyl}methyl)-2-(2-methylphenyl)piperazin-1-yl]-7-azaspiro[3.5]nonan-7-yl}-N-[3-nitro-4-({[(1r,4r)-4-hydroxy-4-methylcyclohexyl]methyl}amino)benzenesulfonyl]benzamide]	91.8	
CC(C)Oc1ccccc1[C@@H]1CN([C@@H]2CCOc3c2ccc(F)c3F)CCN1C1CC2(CCN(c3ccc(C(=O)NS(=O)(=O)c4cc5c(c([N+](=O)[O-])c4)N[C@H](C4CCOCC4)CO5)c(N4c5cc6cc[nH]c6nc5O[C@H]5COCC[C@@H]54)c3)CC2)C1 [Example 212, 4-{2-[(2R)-4-[(4R)-7,8-difluoro-3,4-dihydro-2H-1-benzopyran-4-yl]-2-(2-isopropoxyphenyl)piperazin-1-yl]-7-azaspiro[3.5]nonan-7-yl}-2-[(3R,8S)-2,5-dioxa-9,15,17-triazatetracyclo[8.7.0.0^{3,8}.0^{12,16}]heptadeca-1(10),11,13,16-tetraen-9-yl]-N-[(3R)-5-nitro-3-(oxan-4-yl)-3,4-dihydro-2H-1,4-benzoxazin-7-ylsulfonyl]benzamide]	33.5	
